Laboratory results published in patent US10782293B2, “Compositions and methods” (priority 2015, dated 2020).
Like-named read-outs stand apart in the source and are kept apart here.

Columns and labels:
[1] = tested on: antibodies in serum of cattle infected with bovine M. tuberculosis (B tb); assay: ELISA assay of antibody binding to antigen, serum of cattle naturally infected with bovine TB
Description: The binding of antibodies in serum of cattle infected with M. tuberculosis or M. avium with the antigens detailed in example 3 was measured in an ELISA assay.
ELISA assays were carried out as known to those practiced in the art using 96 well plates. In the first procedure, the ELISA assay was carried out on 96-well microplates and the purified antigens were dissolved in n-hexane at a concentration of 62.5 μg/ml. The antigen solutions were diluted and 50 μl and placed in each well. The plates were left to dry at room temperature overnight. Blocking was done with 0.5% casein/PBS (400 μl/well) and the plates are left to incubate at 25° C. for 1 h. The casein was aspirated using the LT-3500 plate washer and the plates flicked dry. Then the serum (1:20 dilution in 0.5% casein/PBS, pH 7.4) was added to the plate (50 μl/well) and left to incubate at 25° C. for 1 h. The serum was aspirated and washed three times with (casein/PBS, 400 μl/well) using the same plate washer and the plates were flicked dry again. After that, the secondary antibody, in the example given IgG Fc (1:1000 dilution in 0.5% casein/PBS) was added to the plate (50 μl/well) and the plates were left to incubate at 25° C. for 30 min. The plates were washed three times again with (casein/PBS, 400 μl/well) and dried. Then, the OPD substrate was added to the plates, which were left to incubate at 25° C. for 30 min. Finally, 2.5 M H2SO4 (50 μl/well) was added and the absorbances of each well were read at 492, 450 and 630 nm using an LT-4000 plate reader.
Serum used in this work was obtained from cattle infected with MAP, diagnosed as naturally infected with bovine TB, or known not to be infected using standard assays.
All measurements were taken as four replicates unless otherwise stated. These were averaged to provide the data in the table which are optical density measurements at 492 nm.

[2] = tested on: antibodies in serum of cattle known not to be infected; format: binding
[3] = tested on: antibodies in serum of cattle infected with M. avium paratuberculosis (MAP); format: binding; conditions: serum 1:20, IgG Fc secondary antibody, average of four replicates
[4] = VLA (Naturally infected) bovis serum sample 1
[5] = VLA (Naturally infected) bovis serum sample 2
[6] = VLA (Naturally infected) bovis serum sample 3
[7] = VLA (Naturally infected) bovis serum sample 4
[8] = VLA (Naturally infected) bovis serum sample 5
[9] = VLA (Naturally infected) bovis serum sample 6
[10] = VLA (Naturally infected) bovis serum sample 7
[11] = VLA (Naturally infected) bovis serum sample 8
[12] = VLA (Naturally infected) bovis serum sample 9
[13] = VLA (Naturally infected) bovis serum sample 10
[14] = VLA (Naturally infected) bovis serum sample 11
[15] = VLA (Naturally infected) bovis serum sample 12
[16] = VLA (Naturally infected) bovis serum sample 13
[17] = VLA (Naturally infected) bovis serum sample 14
[18] = VLA (Naturally infected) bovis serum sample 15
[19] = VLA (Naturally infected) bovis serum sample 16
[20] = VLA (Naturally infected) bovis serum sample 17
[21] = VLA (Naturally infected) bovis serum sample 18
[22] = VLA (Naturally infected) bovis serum sample 19
[23] = VLA (Naturally infected) bovis serum sample 20
[24] = VLA (Non-vaccinates) serum sample 21
[25] = VLA (Non-vaccinates) serum sample 22
[26] = VLA (Non-vaccinates) serum sample 23
[27] = VLA (Non-vaccinates) serum sample 24
[28] = VLA (Non-vaccinates) serum sample 25
[29] = VLA (Non-vaccinates) serum sample 26
[30] = VLA (Non-vaccinates) serum sample 27
[31] = VLA (Non-vaccinates) serum sample 28
[32] = VLA (Non-vaccinates) serum sample 29
[33] = VLA (Non-vaccinates) serum sample 30
[34] = VLA (Non-vaccinates) serum sample 31
[35] = VLA (Non-vaccinates) serum sample 32
[36] = VLA (Non-vaccinates) serum sample 33
[37] = VLA (Non-vaccinates) serum sample 34
[38] = VLA (Non-vaccinates) serum sample 35
[39] = VLA (Non-vaccinates) serum sample 36
[40] = serum MAP (experimentally infected)

Row | Compound | optical density measurements at 492 nm [1, 4] | optical density measurements at 492 nm [1, 5] | optical density measurements at 492 nm [1, 6] | optical density measurements at 492 nm [1, 7] | optical density measurements at 492 nm [1, 8] | optical density measurements at 492 nm [1, 9] | optical density measurements at 492 nm [1, 10] | optical density measurements at 492 nm [1, 11] | optical density measurements at 492 nm [1, 12] | optical density measurements at 492 nm [1, 13] | optical density measurements at 492 nm [1, 14] | optical density measurements at 492 nm [1, 15] | optical density measurements at 492 nm [1, 16] | optical density measurements at 492 nm [1, 17] | optical density measurements at 492 nm [1, 18] | optical density measurements at 492 nm [1, 19] | optical density measurements at 492 nm [1, 20] | optical density measurements at 492 nm [1, 21] | optical density measurements at 492 nm [1, 22] | optical density measurements at 492 nm [1, 23] | other results
1 | CCCCCCCCCCCCCCCCCCCCCC[C@@H](C(=O)OCC1OC(OC2OC(CO)C(O)C(O)C2O)C(O)C(O)C1O)[C@H](O)CCCCCCCCCCCCCCCC[C@H]1C[C@@H]1[C@@H](C)CCCCCCCCCCCCCCCCCCC(=O)O[C@@H](C)CCCCCCCCCCCCCCCCCC (stereo partly shown) [Antigen G] | 3.68 | 2.78 | 4.06 | 0.63 | 1.04 | 0.88 | 2.34 | 1.39 | 0.40 | 0.52 | 1.63 | 1.54 | 0.26 | 0.22 | 0.15 | 0.15 | 0.11 | 0.27 | 0.11 | 1.54 | optical density measurements at 492 nm [2, 24]: 0.37; optical density measurements at 492 nm [2, 25]: 0.14; optical density measurements at 492 nm [2, 26]: 0.24; optical density measurements at 492 nm [2, 27]: 0.51; optical density measurements at 492 nm [2, 28]: 0.27; optical density measurements at 492 nm [2, 29]: 0.82; optical density measurements at 492 nm [2, 30]: 0.55; optical density measurements at 492 nm [2, 31]: 0.46; optical density measurements at 492 nm [2, 32]: 1.58; optical density measurements at 492 nm [2, 33]: 0.16; optical density measurements at 492 nm [2, 34]: 1.99; optical density measurements at 492 nm [2, 35]: 0.06; optical density measurements at 492 nm [2, 36]: 0.10; optical density measurements at 492 nm [2, 37]: 0.07; optical density measurements at 492 nm [2, 38]: 0.07; optical density measurements at 492 nm [2, 39]: 0.07; optical density measurements at 492 nm ([3]; serum MAP (Naturally infected)): 4.38; optical density measurements at 492 nm [3, 40]: 4.38
2 | CCCCCCCCCCCCCCCCCCCCCC[C@@H](C(=O)OCC1OC(OC2OC(COC(=O)[C@H](CCCCCCCCCCCCCCCCCCCCCC)[C@H](O)CCCCCCCCCCCCCCCC[C@H]3C[C@@H]3[C@@H](C)CCCCCCCCCCCCCCCCCCC(=O)O[C@@H](C)CCCCCCCCCCCCCCCCCC)C(O)C(O)C2O)C(O)C(O)C1O)[C@H](O)CCCCCCCCCCCCCCCC[C@H]1C[C@@H]1[C@@H](C)CCCCCCCCCCCCCCCCCCC(=O)O[C@@H](C)CCCCCCCCCCCCCCCCCC (stereo partly shown) [Antigen F] | 1.07 | 0.67 | 2.47 | 0.67 | 0.29 | 0.18 | 0.51 | 2.23 | 0.18 | 0.24 | 0.31 | 1.08 | 0.66 | 0.23 | 0.12 | 0.62 | 0.47 | 0.52 | 0.69 | 1.08 | optical density measurements at 492 nm [2, 24]: 0.25; optical density measurements at 492 nm [2, 25]: 0.25; optical density measurements at 492 nm [2, 26]: 0.17; optical density measurements at 492 nm [2, 27]: 0.21; optical density measurements at 492 nm [2, 28]: 0.15; optical density measurements at 492 nm [2, 29]: 3.66; optical density measurements at 492 nm [2, 30]: 1.96; optical density measurements at 492 nm [2, 31]: 0.36; optical density measurements at 492 nm [2, 32]: 0.29; optical density measurements at 492 nm [2, 33]: 0.26; optical density measurements at 492 nm [2, 34]: 0.45; optical density measurements at 492 nm [2, 35]: 0.06; optical density measurements at 492 nm [2, 36]: 0.08; optical density measurements at 492 nm [2, 37]: 0.11; optical density measurements at 492 nm [2, 38]: 0.31; optical density measurements at 492 nm [2, 39]: 0.12; optical density measurements at 492 nm ([3]; serum MAP (Naturally infected)): 4.00; optical density measurements at 492 nm [3, 40]: 1.44
